# Values quoted from earlier work in patent publication US20260256742A1, “ANDROGEN RECEPTOR ANTAGONISTS FOR THE TREATMENT OF PATIENTS WITH BIOCHEMICAL RECURRENCE OF HORMONE SENSITIVE PROSTATE CANCER” (BAYER CONSUMER CARE AG, priority 2023, published 2026).
# Legend:
# [1] = rats; cited from earlier work
# [2] = target: T1, multidrug and toxin extrusion (MATE)1 (Homo sapiens, UniProt Q96FL8); settings: in vitro; cited from earlier work
# T1 sequence (Q96FL8 1-570): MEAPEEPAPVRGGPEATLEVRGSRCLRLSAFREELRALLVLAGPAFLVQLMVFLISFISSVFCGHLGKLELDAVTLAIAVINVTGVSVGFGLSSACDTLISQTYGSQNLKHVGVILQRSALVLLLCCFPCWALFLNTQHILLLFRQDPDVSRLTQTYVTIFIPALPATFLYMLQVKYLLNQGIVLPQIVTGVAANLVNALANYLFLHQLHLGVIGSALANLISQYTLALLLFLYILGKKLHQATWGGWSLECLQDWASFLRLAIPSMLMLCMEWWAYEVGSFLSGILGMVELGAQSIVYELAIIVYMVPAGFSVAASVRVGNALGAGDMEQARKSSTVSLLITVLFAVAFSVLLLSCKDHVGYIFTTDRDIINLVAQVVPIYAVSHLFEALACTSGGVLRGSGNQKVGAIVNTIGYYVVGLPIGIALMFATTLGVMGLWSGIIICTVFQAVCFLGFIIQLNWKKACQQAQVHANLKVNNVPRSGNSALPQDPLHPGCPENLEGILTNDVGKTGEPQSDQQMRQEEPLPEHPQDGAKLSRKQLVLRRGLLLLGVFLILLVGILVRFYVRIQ
# OATP1B3 = target: T2, OATP1B3 (Homo sapiens, UniProt Q9NPD5); settings: in vitro; cited from earlier work
# T2 sequence (Q9NPD5 1-702): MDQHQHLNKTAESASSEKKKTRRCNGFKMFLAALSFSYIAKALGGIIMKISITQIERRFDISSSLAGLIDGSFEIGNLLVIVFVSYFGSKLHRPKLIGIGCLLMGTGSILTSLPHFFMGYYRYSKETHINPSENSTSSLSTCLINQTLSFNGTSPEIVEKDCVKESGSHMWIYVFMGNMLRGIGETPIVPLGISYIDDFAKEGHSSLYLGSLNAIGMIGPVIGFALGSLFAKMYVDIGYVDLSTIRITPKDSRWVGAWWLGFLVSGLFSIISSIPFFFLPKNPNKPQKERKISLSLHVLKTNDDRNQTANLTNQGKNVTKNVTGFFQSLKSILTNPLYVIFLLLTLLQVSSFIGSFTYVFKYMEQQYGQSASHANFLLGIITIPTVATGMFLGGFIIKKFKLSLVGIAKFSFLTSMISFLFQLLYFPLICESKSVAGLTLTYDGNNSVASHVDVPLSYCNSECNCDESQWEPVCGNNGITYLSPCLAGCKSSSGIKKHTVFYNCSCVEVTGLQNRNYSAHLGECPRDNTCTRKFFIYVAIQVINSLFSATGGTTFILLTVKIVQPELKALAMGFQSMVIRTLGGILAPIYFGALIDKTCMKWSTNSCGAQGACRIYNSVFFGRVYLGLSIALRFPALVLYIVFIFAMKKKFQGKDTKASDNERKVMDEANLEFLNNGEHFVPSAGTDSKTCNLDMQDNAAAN
# [3] = target: T3, organic anion-transporting polypeptide (OATP)1B1 (Homo sapiens, UniProt Q9Y6L6); settings: in vitro; cited from earlier work
# T3 sequence (Q9Y6L6 1-691): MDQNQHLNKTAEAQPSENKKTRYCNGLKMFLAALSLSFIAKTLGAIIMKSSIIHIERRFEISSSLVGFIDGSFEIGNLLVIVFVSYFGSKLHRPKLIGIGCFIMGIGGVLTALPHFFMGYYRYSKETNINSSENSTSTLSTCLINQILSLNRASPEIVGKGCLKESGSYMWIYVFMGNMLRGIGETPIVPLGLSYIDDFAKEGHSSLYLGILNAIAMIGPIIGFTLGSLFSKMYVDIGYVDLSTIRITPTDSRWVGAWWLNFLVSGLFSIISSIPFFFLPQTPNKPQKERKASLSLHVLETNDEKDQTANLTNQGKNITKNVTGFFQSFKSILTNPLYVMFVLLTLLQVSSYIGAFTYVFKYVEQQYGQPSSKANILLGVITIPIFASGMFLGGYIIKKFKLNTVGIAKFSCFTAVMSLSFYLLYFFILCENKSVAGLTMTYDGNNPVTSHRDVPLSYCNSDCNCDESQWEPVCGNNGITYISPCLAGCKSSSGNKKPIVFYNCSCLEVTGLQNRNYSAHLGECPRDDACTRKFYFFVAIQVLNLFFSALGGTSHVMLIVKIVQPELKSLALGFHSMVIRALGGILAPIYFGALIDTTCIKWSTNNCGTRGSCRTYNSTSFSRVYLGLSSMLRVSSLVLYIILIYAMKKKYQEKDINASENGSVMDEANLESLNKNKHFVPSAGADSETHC
# Cytochrome P450 (CYP)3A4 = Cytochrome P450 (CYP)3A4 (Homo sapiens, UniProt P08684); settings: in vitro; cited from earlier work
# nine CYP isoforms = settings: in vitro; cited from earlier work
# nmCRPC = settings: in combination with ADT, patients with nmCRPC; cited from earlier work
# [4] = test system: prostate cancer cells rendered castration resistant via overexpression of AR; settings: cited from earlier work
# MATE2-K = MATE2-K (Homo sapiens, UniProt Q86VL8); settings: in vitro; cited from earlier work
# Chain of MATE2-K (Q86VL8 1-566 isoform Q86VL8-3): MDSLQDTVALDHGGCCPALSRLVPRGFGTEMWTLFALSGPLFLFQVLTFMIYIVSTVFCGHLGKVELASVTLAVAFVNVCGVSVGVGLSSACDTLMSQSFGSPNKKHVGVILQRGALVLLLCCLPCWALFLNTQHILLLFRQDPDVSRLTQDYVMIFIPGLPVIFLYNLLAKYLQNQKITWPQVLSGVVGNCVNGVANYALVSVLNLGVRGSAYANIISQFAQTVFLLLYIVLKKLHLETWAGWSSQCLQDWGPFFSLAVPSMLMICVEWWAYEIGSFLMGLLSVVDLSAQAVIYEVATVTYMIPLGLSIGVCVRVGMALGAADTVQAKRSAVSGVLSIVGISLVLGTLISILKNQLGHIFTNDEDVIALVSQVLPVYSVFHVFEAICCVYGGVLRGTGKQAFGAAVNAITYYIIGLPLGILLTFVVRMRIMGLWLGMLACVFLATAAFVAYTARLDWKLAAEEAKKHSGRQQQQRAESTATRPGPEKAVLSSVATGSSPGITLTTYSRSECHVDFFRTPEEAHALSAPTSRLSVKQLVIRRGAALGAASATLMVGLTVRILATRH
# Chain of Cytochrome P450 (CYP)3A4 (P08684 whole entry, canonical isoform): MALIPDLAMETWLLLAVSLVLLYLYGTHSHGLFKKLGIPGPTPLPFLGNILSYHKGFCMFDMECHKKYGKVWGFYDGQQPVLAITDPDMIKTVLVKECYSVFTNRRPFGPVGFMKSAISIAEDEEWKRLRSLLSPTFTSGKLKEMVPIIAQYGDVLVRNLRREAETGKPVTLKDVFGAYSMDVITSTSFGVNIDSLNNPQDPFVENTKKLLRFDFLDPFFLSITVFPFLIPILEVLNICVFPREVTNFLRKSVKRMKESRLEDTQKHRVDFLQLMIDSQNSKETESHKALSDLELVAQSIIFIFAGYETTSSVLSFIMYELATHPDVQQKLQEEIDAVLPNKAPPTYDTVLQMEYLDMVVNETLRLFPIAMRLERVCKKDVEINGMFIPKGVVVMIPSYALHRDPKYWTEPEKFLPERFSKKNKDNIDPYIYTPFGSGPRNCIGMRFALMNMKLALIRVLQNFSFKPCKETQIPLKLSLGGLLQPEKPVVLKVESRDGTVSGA
compound,measurement,setting,value
CC(O)c1cc(C(=O)N[C@@H](C)Cn2ccc(-c3ccc(C#N)c(Cl)c3)n2)[nH]n1 (some centres unmarked) [Darolutamide],absorption,[1],complete and rapid absorption
same,bioavailability,[1],high bioavailability
same,inhibition of MATE1-mediated transport,[2],observed
same,inhibition of OATP1B3-mediated transport,OATP1B3,observed
same,inhibition of OATP1B1-mediated transport,[3],observed
same,main metabolic pathway,Cytochrome P450 (CYP)3A4,mainly metabolized via oxidative biotransformation catalyzed by Cytochrome P450 (CYP)3A4
same,inhibition of enzymatic activity of nine CYP isoforms,nine CYP isoforms,not inhibited or slightly inhibited
same,metastatic free survival (MFS),nmCRPC,significantly increased
same,overall survival (OS),nmCRPC,significantly increased
same,agonist activity with AR overexpression,[4],lacks the partial agonist activity
same,inhibition of MATE2-K-mediated transport,MATE2-K,observed
